According to patent publication US20230399320A1, “NOVEL CAPSID ASSEMBLY INHIBITOR” (Pelemed Co., Ltd., priority 2020, published 2023):
Like-named read-outs stand apart in the source and are kept apart here.

Legend:
[1] = target: T1, Cp149 (truncated form of a HBV core protein) (Hepatitis B virus genotype D subtype ayw, UniProt P03146); experiment: Protein based assay: immunoblot analysis of in vitro HBV capsid assembly; assay type: biochemical; conditions: for inhibition at 10 µM: read-out: Protein based assay (% inhibition, 10 μM); for inhibition at 0.1 µM: read-out: Protein based assay (% inhibition), 0.1 μM; for inhibition at 1 µM: read-out: Protein based assay (% inhibition), 1 μM
T1 construct: Cp149 (amino acids 1-149) is a truncated form of a HBV core protein; histidine tag (cleaved yes); made in house; host or cells: Escherichia coli BL21(DE3)
T1 sequence (P03146 1-149): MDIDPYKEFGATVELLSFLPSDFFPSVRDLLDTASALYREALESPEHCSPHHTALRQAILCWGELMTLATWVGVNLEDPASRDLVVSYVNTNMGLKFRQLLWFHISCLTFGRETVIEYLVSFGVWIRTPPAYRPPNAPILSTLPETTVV
Description: Cp149 (amino acids 1-149) is a truncated form of a HBV core protein. It was expressed in Escherichia coli, and the expressed protein was purified. The recombinant Cp149 was expressed in E. coli BL21(DE3) cells cultured in LB medium at 37° C. When the culture reached an OD600 of 0.7 to 0.8, expression of the culture was induced with 0.5 mM isopropyl-β-d-thiogalactopyranoside and the culture was cooled to 16° C. After 16 hours, the cells were harvested, flash-frozen in liquid nitrogen, and stored at −80° C. To purify Cp149, thawed cells were resuspended in lysis buffer (20 mM Tris-HCl pH 9.0, 200 mM NaCl, 10 mM imidazole, 10 μg per mL DNaseI, 1 mM phenylmethylsulfonyl fluoride), and treated with ultrasonic waves. The supernatant was loaded onto Ni-NTA affinity resin. Proteins were eluted using a 20 mM to 500 mM imidazole gradient dissolved in lysis buffer. After removing the histidine tag with thrombin, the protein was further purified by HiTrap Q anion exchange chromatography (17115401, GE Healthcare).
To determine the effect on in vitro Cp149 assembly, compounds of the present invention were added to the Cp149-containing suspension. The final concentration of Cp149 was 1 mg per mL, and the compounds of the present invention were added at concentrations of 0.1 to 10 μM. The suspension was mixed with reaction buffer (150 mM HEPES, pH 7.5, 15 mM NaCl) added in a 2:1 ratio. In vitro assembly was performed at 37° C. for 1 hour, and HBV capsid was detected by immunoblot analysis using an anti-HBV core antibody (1:2000, B0586, Dako).

HBV DNA = experiment: Quantitative PCR for measuring HBV DNA in cells (HBV DNA quantification); assay type: cell-based
Description: After treating cells with the indicated compounds, HBV DNA secreted into the medium and intracellular HBV DNA were extracted, purified, and quantified by quantitative PCR. To isolate the secreted HBV DNA, the culture medium was recovered and centrifuged at 15,000×g to remove debris. The medium was diluted 1:1 with phosphate-buffered saline (PBS), and 1 M NaOH solution was added to a final concentration of 0.1 M. The mixture was incubated at 37° C. for 1 hour. The protein was denatured by adding 2M Tris-HCl solution (pH 7.5) to a final concentration of 0.2 M and incubating at 98° C. for 5 minutes. The protein precipitation was removed by centrifugation at 15,000×g, and the supernatant was subjected to PCR with HBV DNA primer and probe sets:
Forward: 5′-[…]-3′, Reverse: 5′-[…]-3′, Probe: 5′-[…]-3′.

[2] = Hepatitis B virus, read-out: HBV DNA quantification
[3] = Hepatitis B virus, read-out: HBV DNA quantification (IC50 μM)
[4] = Hepatitis B virus; read-out: HBV DNA quantification (IC50 μM)

| Compound | inhibition at 10 µM [1] [%] | IC50 (HBV DNA; [3]) [µM] | other results |
| --- | --- | --- | --- |
| COc1ncccc1C(=O)NCCNc1cc(Nc2ccc(Br)cc2)nc(SC)n1 [Compound 8d, N-(2-(6-(4-bromophenylamino)-2-(methylthio)pyrimidin-4-ylamino)ethyl)-2-methoxynicotinamide] | 76 | – | IC50 (HBV DNA; [2]): > 10 µM |
| CC(C)(C)OC(=O)N1CCN(c2cc(NCc3ccc(F)cc3)nc(S(C)(=O)=O)n2)CC1 [Compound 22b, tert-butyl 4-(6-(4-fluorobenzylamino)-2-(methylsulfonyl)pyrimidin-4-yl)piperazine-1-carboxylate] | 40 | 0.549 | – |
| CC(C)(C)OC(=O)N1CCN(c2cc(Nc3ccc(Br)cc3)nc(S(C)(=O)=O)n2)CC1 [Compound 22e, tert-butyl 4-(6-(4-bromophenylamino)-2-(methylsulfonyl)pyrimidin-4-yl)piperazine-1-carboxylate] | 67 | 0.652 | – |
| CS(=O)(=O)c1nc(Nc2ccc(F)c(Cl)c2)cc(NC2CCNCC2)n1 [Compound 26f, N^4-(3-chloro-4-fluorophenyl)-2-(methylsulfonyl)-N^6-(piperidin-4-yl)pyrimidine-4,6-diamine] | – | 0.199 | inhibition at 0.1 µM [1]: 59%; inhibition at 1 µM [1]: 95% |
| C[S+]([O-])c1nc(NCCNC(=O)c2ccc(Cl)cc2Cl)cc(Nc2ccc(N3CCOCC3)cc2)n1 (stereo not shown) [Compound 5d, 2,4-dichloro-N-(2-(2-(methylsulfinyl)-6-(4-morpholinophenylamino)pyrimidin-4-ylamino)ethyl)benzamide] | 0 | > 10 | – |
| CC(C)(C)OC(=O)N1CCN(c2cc(Nc3ccc(I)cc3)nc(S(C)(=O)=O)n2)CC1 [Compound 22f, tert-butyl 4-(6-(4-iodophenylamino)-2-(methylsulfonyl)pyrimidin-4-yl)piperazine-1-carboxylate] | 66 | 1.1 | – |
| CS(=O)(=O)c1nc(Cl)cc(Nc2ccc(F)cc2F)n1 [Compound 16a, 6-chloro-N-(2,4-difluorophenyl)-2-(methylsulfonyl)pyrimidin-4-amine] | 85 | > 10 | – |
| CS(=O)(=O)c1nc(Cl)cc(Nc2cc(F)c(F)c(F)c2)n1 [Compound 16b, 6-chloro-2-(methylsulfonyl)-N-(3,4,5-trifluorophenyl)pyrimidin-4-amine] | 82 | 0.473 | – |
| CS(=O)(=O)c1nc(Nc2ccc(F)cc2)cc(Nc2ccc(F)cc2)n1 [Compound 18a, N^4,N^6-bis(4-fluorophenyl)-2-(methylsulfonyl)pyrimidine-4,6-diamine] | 49 | – | IC50 (HBV DNA; [4]): 6.4 µM |
| COc1ncccc1C(=O)NCCNc1cc(Nc2ccc(Cl)cc2)nc(SC)n1 [Compound 8c, N-(2-(6-(4-chlorophenylamino)-2-(methylthio)pyrimidin-4-ylamino)ethyl)-2-methoxynicotinamide] | 26 | – | IC50 (HBV DNA; [2]): > 10 µM |
| CS(=O)(=O)c1nc(Nc2ccc(F)c(Cl)c2)cc(N2CCNCC2)n1 [Compound 26c, N-(3-chloro-4-fluorophenyl)-2-(methylsulfonyl)-6-(piperazin-1-yl)pyrimidin-4-amine] | – | 0.189 | inhibition at 0.1 µM [1]: 47%; inhibition at 1 µM [1]: 90% |
| 6-(4-aminopiperidin-1-yl)-2-(methylsulfonyl)-N-(3,4,5-trifluorophenyl)pyrimidin-4-amine [Compound 26h] | – | – | Protein based assay (% inhibition), 0.1 μM ([1]; compound 0.1 μM): 29%; Protein based assay (% inhibition), 1 μM ([1]; compound 1 μM): 96%; IC50 (HBV DNA; read-out: HBV DNA quantification (IC50 μM)): 0.292 µM |
| COc1ncccc1C(=O)NCCNc1cc(Nc2ccc(F)cc2Cl)nc([S+](C)[O-])n1 (stereo not shown) [Compound 9h, N-(2-(6-(2-chloro-4-fluorophenylamino)-2-(methylsulfinyl)pyrimidin-4-ylamino)ethyl)-2-methoxynicotinamide] | 43 | > 10 | – |
| CS(=O)(=O)c1nc(Nc2ccc(F)c(Br)c2)cc(NC2CCNCC2)n1 [Compound 26g, N^4-(3-bromo-4-fluorophenyl)-2-(methylsulfonyl)-N^6-(piperidin-4-yl)pyrimidine-4,6-diamine] | – | – | inhibition at 0.1 µM [1]: 7%; inhibition at 1 µM [1]: 97%; IC50 (HBV DNA; [4]): 0.536 µM |
| CS(=O)(=O)c1nc(Nc2cc(F)c(F)c(F)c2)cc(Nc2cc(F)c(F)c(F)c2)n1 [Compound 18b, 2-(methylsulfonyl)-N^4,N^6-bis(3,4,5-trifluorophenyl)pyrimidine-4,6-diamine] | 69 | – | IC50 (HBV DNA; [4]): 1.02 µM |
| COc1ncccc1C(=O)NCCNc1cc(Nc2ccc(F)cc2Cl)nc(SC)n1 [Compound 8g, N-(2-(6-(2-chloro-4-fluorophenylamino)-2-(methylthio)pyrimidin-4-ylamino)ethyl)-2-methoxynicotinamide] | 43 | – | IC50 (HBV DNA; [2]): > 10 µM |
| CC(C)(C)OC(=O)N1CCN(c2cc(Nc3cc(F)c(F)c(F)c3)nc(S(C)(=O)=O)n2)CC1 [Compound 22h, tert-butyl 4-(2-(methylsulfonyl)-6-(3,4,5-trifluorophenylamino)pyrimidin-4-yl)piperazine-1-carboxylate] | 96 | 0.577 | – |
| COc1ncccc1C(=O)NCCNc1cc(Nc2ccc(F)cc2Cl)nc(S(C)(=O)=O)n1 [Compound 9i, N-(2-(6-(2-chloro-4-fluorophenylamino)-2-(methylsulfonyl)pyrimidin-4-ylamino)ethyl)-2-methoxynicotinamide] | 43 | > 10 | – |
| CSc1nc(N)cc(N(CCc2ccc(F)cc2)c2ccc(N3CCOCC3)cc2)n1 [Compound 11b, N^4-(4-fluorophenethyl)-2-(methylthio)-N^4-(4-morpholinophenyl)pyrimidine-4,6-diamine] | 74 | – | IC50 (HBV DNA; [4]): > 10 µM |
| CSc1nc(N)cc(N(Cc2ccc(F)cc2)c2ccc(N3CCOCC3)cc2)n1 [Compound 11a, N^4-(4-fluorobenzyl)-2-(methylthio)-N^4-(4-morpholinophenyl)pyrimidine-4,6-diamine] | 71 | – | IC50 (HBV DNA; [4]): > 10 µM |
| COc1cncc(C(=O)NCCNc2cc(Nc3ccc(N4CCOCC4)cc3)nc(SC)n2)c1 [Compound 4b, 5-methoxy-N-(2-(2-(methylthio)-6-(4-morpholinophenylamino)pyrimidin-4-ylamino)ethyl)nicotinamide] | 37 | – | IC50 (HBV DNA; [4]): > 10 µM |
